# What was measured:
# Assay in all cases: NCI 60 cell panel SRB screen
# Assay type in all cases: cell-based
# [1] = test system: K-562; conditions: Homo sapiens, K562; for activity at 10 µM: K-562, single dose 10 μM, read-out: percent cell growth promotion; for GI50 / IC (TGI) / CC50: K-562, 5 log dose; for CC50: 48 h, read-out: LC50 (the source's name)
# [2] = test system: A498; conditions: Homo sapiens; for activity at 10 µM: A498, single dose 10 μM, read-out: percent cell growth promotion; for GI50 / IC (TGI) / CC50: A498, 5 log dose; for CC50: 48 h, read-out: LC50 (the source's name)
# [3] = test system: SF-268; conditions: Homo sapiens; for activity at 10 µM: SF-268, single dose 10 μM, read-out: percent cell growth promotion; for GI50 / IC (TGI) / CC50: SF-268, 5 log dose; for CC50: 48 h, read-out: LC50 (the source's name)
# [4] = test system: MOLT-4; conditions: Homo sapiens; for activity at 10 µM: MOLT-4, single dose 10 μM, read-out: percent cell growth promotion; for GI50 / IC (TGI) / CC50: MOLT-4, 5 log dose; for CC50: 48 h, read-out: LC50 (the source's name)
# [5] = test system: U251; conditions: Homo sapiens, U-251; for activity at 10 µM: U251, single dose 10 μM, read-out: percent cell growth promotion; for GI50 / IC (TGI) / CC50: U251, 5 log dose; for CC50: 48 h, read-out: LC50 (the source's name)
# [6] = test system: SF-295; conditions: Homo sapiens; for activity at 10 µM: SF-295, single dose 10 μM, read-out: percent cell growth promotion; for GI50 / IC (TGI) / CC50: SF-295, 5 log dose; for CC50: 48 h, read-out: LC50 (the source's name)
# [7] = test system: MDA-MB-468; conditions: Homo sapiens; for activity at 10 µM: MDA-MB-468, MDA-MBA-468, single dose 10 μM, read-out: percent cell growth promotion; for GI50 / IC (TGI) / CC50: MDA-MB-468, 5 log dose; for CC50: 48 h, read-out: LC50 (the source's name)
# Method in brief: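 Cells in RPMI 1640 with 5% FBS, preincubated 24 h, then exposed to five concentrations for 48 h at 37 °C. TCA fixation, SRB staining, absorbance at 515 nm; a time-zero plate allows GI50 (50% reduction in net protein gain), TGI and LC50 (50% loss versus start).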
# [8] = test system: UACC-257; conditions: Homo sapiens; for activity at 10 µM: UACC-257, read-out: percent cell growth promotion; for GI50: UACC-257; for IC (TGI): UACC-257, read-out: TGI; for CC50: UACC-257, 5 log dose, 48 h, read-out: LC50 (the source's name)
# [9] = test system: NCI-H23; conditions: Homo sapiens; for activity at 10 µM: NCI-H23, single dose 10 μM, read-out: percent cell growth promotion; for GI50 / IC (TGI) / CC50: NCI-H23, 5 log dose; for CC50: 48 h, read-out: LC50 (the source's name)
# [10] = test system: A549/ATCC; conditions: Homo sapiens; for activity at 10 µM: single dose 10 μM, read-out: percent cell growth promotion; for GI50 / IC (TGI) / LC50 (concentration killing 50% of cells): 5 log dose; for LC50 (concentration killing 50% of cells): 48 h
# [11] = test system: COLO 205; conditions: Homo sapiens; for activity at 10 µM: COLO 205, single dose 10 μM, read-out: percent cell growth promotion; for GI50 / IC (TGI) / CC50: COLO 205, 5 log dose; for CC50: 48 h, read-out: LC50 (the source's name)
# [12] = test system: HCT-116; conditions: Homo sapiens; for activity at 10 µM: HCT-116, single dose 10 μM, read-out: percent cell growth promotion; for GI50 / IC (TGI) / LC50 (lethal concentration 50%): HCT-116, 5 log dose; for LC50 (lethal concentration 50%): 48 h
# [13] = test system: OVCAR-5; conditions: Homo sapiens; for activity at 10 µM: OVCAR-5, single dose 10 μM, read-out: percent cell growth promotion; for GI50 / IC (TGI) / CC50: OVCAR-5, 5 log dose; for CC50: 48 h, read-out: LC50 (the source's name)
# [14] = test system: NCI/ADR-RES; conditions: Homo sapiens; for activity at 10 µM: single dose 10 μM, read-out: percent cell growth promotion; for GI50 / IC (TGI) / CC50: 5 log dose; for CC50: 48 h, read-out: LC50 (the source's name)
# [15] = test system: SK-OV-3; conditions: Homo sapiens; for activity at 10 µM: SK-OV-3, single dose 10 μM, read-out: percent cell growth promotion; for GI50 / IC (TGI) / CC50: SK-OV-3, 5 log dose; for CC50: 48 h, read-out: LC50 (the source's name)
# [16] = test system: ACHN; conditions: Homo sapiens; for activity at 10 µM: single dose 10 μM, read-out: percent cell growth promotion; for GI50 / IC (TGI) / CC50: 5 log dose; for CC50: 48 h, read-out: LC50 (the source's name)
# [17] = test system: HOP-62; conditions: Homo sapiens; for activity at 10 µM: HOP-62, single dose 10 μM, read-out: percent cell growth promotion; for GI50 / IC (TGI) / CC50: HOP-62, 5 log dose; for CC50: 48 h, read-out: LC50 (the source's name)
# [18] = test system: SK-MEL-28; conditions: Homo sapiens; for activity at 10 µM: SK-MEL-28, read-out: percent cell growth promotion; for GI50: SK-MEL-28; for IC (TGI): SK-MEL-28, read-out: TGI; for CC50: SK-MEL-28, 5 log dose, 48 h, read-out: LC50 (the source's name)
# [19] = test system: HCT-15; conditions: Homo sapiens; for activity at 10 µM: HCT-15, single dose 10 μM, read-out: percent cell growth promotion; for GI50 / IC (TGI) / CC50: HCT-15, 5 log dose; for CC50: 48 h, read-out: LC50 (the source's name)
smiles,measurement,setting,value
"Cc1nnc(N2CCN(c3ccccc3F)CC2)c2ccccc12 [Compound 8h, 1–(4-(2-Fluorophenyl)piperazin-1-yl)-4-methylphthalazine]",activity at 10 µM,[1],110%
same,activity at 10 µM,[2],65.3%
same,activity at 10 µM,[3],110%
same,activity at 10 µM,[4],102%
same,activity at 10 µM,[5],96.2%
same,activity at 10 µM,[6],92.7%
same,activity at 10 µM,[7],84.8%
same,activity at 10 µM,[8],95.3%
same,activity at 10 µM,[9],101%
same,activity at 10 µM,[10],89%
same,activity at 10 µM,[11],120%
same,activity at 10 µM,[12],95.6%
same,activity at 10 µM,[13],87.9%
same,activity at 10 µM,[14],96.9%
same,activity at 10 µM,[15],105%
same,activity at 10 µM,[16],98.4%
same,activity at 10 µM,[17],100%
same,activity at 10 µM,[18],104%
same,activity at 10 µM,[19],91.8%
"O=C(Nc1ccccc1)Nc1ccc(Oc2nnc(Cl)c3ccccc23)cc1 [Compound 13a, 1–(4-(4-Chlorophthalazin-1-yloxy)phenyl)-3-phenylurea]",GI50,[1],6.21 µM
same,IC (TGI),[1],> 25 µM
same,CC50,[1],> 25 µM
same,activity at 10 µM,[1],51.6%
same,GI50,[2],3.45 µM
same,IC (TGI),[2],13.1 µM
same,CC50,[2],> 25 µM
same,activity at 10 µM,[2],49.2%
same,GI50,[3],2.89 µM
same,IC (TGI),[3],7.57 µM
same,CC50,[3],19.8 µM
same,activity at 10 µM,[3],25.9%
same,GI50,[4],2.6 µM
same,IC (TGI),[4],11.4 µM
same,CC50,[4],> 25 µM
same,GI50,[5],2.14 µM
same,IC (TGI),[5],5.2 µM
same,CC50,[5],11.4 µM
same,activity at 10 µM,[5],4.84%
same,GI50,[6],2.07 µM
same,IC (TGI),[6],5.63 µM
same,CC50,[6],13.5 µM
same,activity at 10 µM,[6],31.2%
same,activity at 10 µM,[7],0.47%
same,GI50,[7],7.58 µM
same,IC (TGI),[7],7.56 µM
same,CC50,[7],> 25 µM
same,GI50,[8],3.96 µM
same,IC (TGI),[8],> 25 µM
same,activity at 10 µM,[8],22%
same,CC50,[8],> 25 µM
same,GI50,[9],3.72 µM
same,IC (TGI),[9],9.44 µM
same,CC50,[9],24 µM
same,activity at 10 µM,[9],32.7%
same,GI50,[10],3.47 µM
same,IC (TGI),[10],18.4 µM
same,LC50 (concentration killing 50% of cells),[10],> 25 µM
same,activity at 10 µM,[10],11.2%
same,GI50,[11],5.24 µM
same,IC (TGI),[11],> 25 µM
same,CC50,[11],> 25 µM
same,activity at 10 µM,[11],35.1%
same,GI50,[12],3.06 µM
same,IC (TGI),[12],9.77 µM
same,LC50 (lethal concentration 50%),[12],> 25 µM
same,activity at 10 µM,[12],10.6%
same,GI50,[13],5.61 µM
same,IC (TGI),[13],15.3 µM
same,CC50,[13],> 25 µM
same,activity at 10 µM,[13],86.3%
same,GI50,[14],2.63 µM
same,IC (TGI),[14],6.39 µM
same,CC50,[14],15.5 µM
same,activity at 10 µM,[14],16.9%
same,GI50,[15],1.46 µM
same,IC (TGI),[15],5.51 µM
same,CC50,[15],16.6 µM
same,activity at 10 µM,[15],-0.5%
same,GI50,[16],3.47 µM
same,IC (TGI),[16],18.7 µM
same,CC50,[16],> 25 µM
same,activity at 10 µM,[16],33.9%
same,GI50,[17],2.52 µM
same,IC (TGI),[17],65.4 µM
same,CC50,[17],17 µM
same,activity at 10 µM,[17],-43.4%
same,GI50,[18],3.57 µM
same,IC (TGI),[18],12.7 µM
same,activity at 10 µM,[18],44.2%
same,CC50,[18],> 25 µM
same,GI50,[19],3.54 µM
same,IC (TGI),[19],12.9 µM
same,CC50,[19],> 25 µM
same,activity at 10 µM,[19],36.4%
"Clc1ccc(Nc2nnc(CNc3ccccc3)c3ccccc23)cc1 [Compound 16a, N-(4-Chlorophenyl)-4-((phenylamino)methyl)phthalazin-1-amine]",GI50,[1],1.71 µM
same,IC (TGI),[1],14.5 µM
same,CC50,[1],> 25 µM
same,activity at 10 µM,[1],5.39%
same,GI50,[2],1.45 µM
same,IC (TGI),[2],6.6 µM
same,CC50,[2],17.6 µM
same,activity at 10 µM,[2],24.7%
same,GI50,[3],3.28 µM
same,IC (TGI),[3],14.5 µM
same,CC50,[3],> 25 µM
same,activity at 10 µM,[3],20.9%
same,GI50,[4],1.71 µM
same,IC (TGI),[4],8.75 µM
same,CC50,[4],> 25 µM
same,activity at 10 µM,[4],-9.21%
same,GI50,[5],3.28 µM
same,IC (TGI),[5],7.33 µM
same,CC50,[5],16.4 µM
same,activity at 10 µM,[5],9.66%
same,GI50,[6],2.98 µM
same,IC (TGI),[6],8.77 µM
same,CC50,[6],> 25 µM
same,activity at 10 µM,[6],14.3%
same,activity at 10 µM,[7],-16.4%
same,GI50,[7],1.9 µM
same,IC (TGI),[7],11.5 µM
same,CC50,[7],> 25 µM
same,GI50,[8],2.74 µM
same,IC (TGI),[8],6.87 µM
same,activity at 10 µM,[8],-6.49%
same,CC50,[8],17.2 µM
same,GI50,[9],2.5 µM
same,IC (TGI),[9],16.4 µM
same,CC50,[9],> 25 µM
same,activity at 10 µM,[9],9.95%
same,GI50,[10],3.17 µM
same,IC (TGI),[10],20 µM
same,LC50 (concentration killing 50% of cells),[10],> 25 µM
same,activity at 10 µM,[10],20.3%
same,GI50,[11],0.91 µM
same,IC (TGI),[11],5.39 µM
same,CC50,[11],20.5 µM
same,activity at 10 µM,[11],11.9%
same,GI50,[12],1.2 µM
same,IC (TGI),[12],5.02 µM
same,LC50 (lethal concentration 50%),[12],13.3 µM
same,activity at 10 µM,[12],9.94%
same,GI50,[13],4.92 µM
same,IC (TGI),[13],> 25 µM
same,CC50,[13],> 25 µM
same,activity at 10 µM,[13],41.5%
same,GI50,[14],4.12 µM
same,IC (TGI),[14],17 µM
same,CC50,[14],> 25 µM
same,activity at 10 µM,[14],18.8%
same,GI50,[15],3.17 µM
same,IC (TGI),[15],11.4 µM
same,CC50,[15],> 25 µM
same,activity at 10 µM,[15],22%
same,GI50,[16],3.1 µM
same,IC (TGI),[16],> 25 µM
same,CC50,[16],> 25 µM
same,activity at 10 µM,[16],7.07%
same,GI50,[17],2.86 µM
same,IC (TGI),[17],8.84 µM
same,CC50,[17],> 25 µM
same,activity at 10 µM,[17],27.4%
same,GI50,[18],3.67 µM
same,IC (TGI),[18],10.5 µM
same,activity at 10 µM,[18],14.9%
same,CC50,[18],> 25 µM
same,GI50,[19],2.99 µM
same,IC (TGI),[19],9.39 µM
same,CC50,[19],> 25 µM
same,activity at 10 µM,[19],13.4%
